{
  "source": "patent US12721349B2",
  "about": "“Method for promoting bacterial cell wall degradation” (KABUSHIKI KAISHA YAKULT HONSHA, priority 2019, dated 2026)",
  "key": {"[1]": {"tested_on": "Lactobacillus casei YIT 9029", "assay": "Cell wall degradation of YIT 9029 by lysozyme and mutanolysin (recombinant) with added saccharide, turbidity OD615", "type": "cell-based", "conditions": "for difference between the promotion effects of the D-form and the L-form: 0.1 M to 1.5 M; for difference between the promotion effects of the D-form and the L-form / concentration dependence of the degradation rate: FIG. 6; for concentration dependence of the degradation rate: concentration range of 0.1 M and 1.0 M"}, "[2]": {"tested_on": "Lactobacillus casei YIT 9029", "assay": "Cell wall degradation of YIT 9029 by mutanolysin (recombinant) alone with added saccharide, turbidity OD615", "type": "cell-based", "conditions": "37° C.; for degradation-promoting effect, mutanolysin alone: 0.5, 1.0 or 1.5 M, FIG. 5B", "method": "The bacteria were suspended in a 5 mM Tris-maleate buffer solution (manufactured by Sigma-Aldrich Co.) (pH 6.4) of the same volume as that of the original bacterial solution, and 100 μg of lysozyme from chicken egg white lyophilized powder (manufactured by Sigma-Aldrich Co., hereinafter, referred to as lysozyme), which is egg white lysozyme, and 100 U of mutanolysin (recombinant) (manufactured by A&A Biotechnology) were added per 1 mL of the suspension. The reaction solution was treated at 37° C. for 24 hours. In addition, in order to examine the influence of the addition of a saccharide on cell wall degradation reaction, the same reaction was performed using a Tris-maleate buffer solution containing D-glucose or L-rhamnose at a final concentration of 0.5 M instead of the Tris-maleate buffer solution. Each reaction was performed in triplicate. The turbidity (OD615) of the bacterial suspension at 615 nm (maximal absorption wavelength; measurement wavelength range: 575-660 nm) was measured over time using a spectrophotometer PiCOSCOPE PAS-110 (manufactured by Ushio Inc.), and the degradation rate was calculated by the following equation (1). The degradation rate was shown by the mean±standard deviation of triplicate. Degradation rate=1−(OD615 after reaction/OD615 before reaction) (1). (6) Result It was expected from Examples 1 to 4 that a saccharide such as D-arabinose increases the activity of mutanolysin to promote the degradation of cell wall. However, since a possibility that the saccharide increases the activity of lysozyme that has been added together cannot be excluded, the degradation rate when YIT 9029 was treated with mutanolysin or lysozyme alone was examined using some saccharides. […] Each reaction was performed without replicates. […] Each reaction was performed in triplicate."}, "[3]": {"tested_on": "Lactobacillus casei YIT 9029", "assay": "Cell wall degradation of YIT 9029 by lysozyme alone with added saccharide, turbidity OD615", "type": "cell-based", "conditions": "1.5 M, 37° C., FIG. 5A", "method": "The bacteria were suspended in a 5 mM Tris-maleate buffer solution (manufactured by Sigma-Aldrich Co.) (pH 6.4) of the same volume as that of the original bacterial solution, and 100 μg of lysozyme from chicken egg white lyophilized powder (manufactured by Sigma-Aldrich Co., hereinafter, referred to as lysozyme), which is egg white lysozyme, and 100 U of mutanolysin (recombinant) (manufactured by A&A Biotechnology) were added per 1 mL of the suspension. The reaction solution was treated at 37° C. for 24 hours. In addition, in order to examine the influence of the addition of a saccharide on cell wall degradation reaction, the same reaction was performed using a Tris-maleate buffer solution containing D-glucose or L-rhamnose at a final concentration of 0.5 M instead of the Tris-maleate buffer solution. Each reaction was performed in triplicate. The turbidity (OD615) of the bacterial suspension at 615 nm (maximal absorption wavelength; measurement wavelength range: 575-660 nm) was measured over time using a spectrophotometer PiCOSCOPE PAS-110 (manufactured by Ushio Inc.), and the degradation rate was calculated by the following equation (1). The degradation rate was shown by the mean±standard deviation of triplicate. Degradation rate=1−(OD615 after reaction/OD615 before reaction) (1). […]"}, "[4]": {"assay": "Solubility in water at room temperature", "type": "physicochemical", "conditions": "read-out: upper limit of the solubility in water"}, "[5]": {"tested_on": "Lactobacillus casei YIT 9029", "assay": "Cell wall degradation of YIT 9029 by lysozyme and mutanolysin (recombinant) with added saccharide, turbidity OD615", "type": "cell-based", "conditions": "saccharide 0.5 M, 37° C.; for cell wall degradation-promoting effect / cell wall degradation-promoting effect after 1 hour of the reaction: FIG. 4; for cell wall degradation rate compared with the reaction in which no saccharide was added: up to 24 hours, FIG. 1", "method": "Lactobacillus casei YIT 9029 (hereinafter, referred to as YIT 9029) was used. Thirty microliters of the pre-cultured bacterial solution of about 2×10^9 CFU/mL cultured in the MRS Broth was inoculated in 30 mL of the MRS Broth prepared in the above (2) and then cultured at 37° C. for 24 hours. […] The bacteria were suspended in a 5 mM Tris-maleate buffer solution (manufactured by Sigma-Aldrich Co.) (pH 6.4) of the same volume as that of the original bacterial solution, and 100 μg of lysozyme from chicken egg white lyophilized powder (manufactured by Sigma-Aldrich Co., hereinafter, referred to as lysozyme), which is egg white lysozyme, and 100 U of mutanolysin (recombinant) (manufactured by A&A Biotechnology) were added per 1 mL of the suspension. The reaction solution was treated at 37° C. for 24 hours. In addition, in order to examine the influence of the addition of a saccharide on cell wall degradation reaction, the same reaction was performed using a Tris-maleate buffer solution containing D-glucose or L-rhamnose at a final concentration of 0.5 M instead of the Tris-maleate buffer solution. Each reaction was performed in triplicate. The turbidity (OD615) of the bacterial suspension at 615 nm (maximal absorption wavelength; measurement wavelength range: 575-660 nm) was measured over time using a spectrophotometer PiCOSCOPE PAS-110 (manufactured by Ushio Inc.), and the degradation rate was calculated by the following equation (1). The degradation rate was shown by the mean±standard deviation of triplicate. Degradation rate=1−(OD615 after reaction/OD615 before reaction) (1). (6) Result […] Each reaction was performed in triplicate. The same reaction as in Example 1 was performed except that D-arabinose, L-arabinose, D-lyxose, L-lyxose, D-xylose, L-xylose, D-ribose, L-ribose, D-fucose, L-fucose, D-mannose, L-mannose, D-galactose, or D-fructose was added as the saccharide, and the cell wall degradation-promoting effect of each saccharide was examined. Each reaction was performed in triplicate. […] Each reaction was performed in triplicate."}, "[6]": {"tested_on": "Lactobacillus casei YIT 9029", "assay": "Cell wall degradation of YIT 9029 by lysozyme and mutanolysin from Streptomyces globisporus ATCC 21553 with added saccharide, turbidity OD615", "type": "cell-based", "conditions": "1.5 M, 37° C. or 50° C., mutanolysin from Streptomyces globisporus ATCC 21553, FIG. 3A", "method": "The reaction solution was treated at 37° C. for 24 hours. In addition, in order to examine the influence of the addition of a saccharide on cell wall degradation reaction, the same […] buffer solution. Each reaction was performed in triplicate. The turbidity (OD615) of the bacterial suspension at 615 nm (maximal absorption wavelength; measurement wavelength range: 575-660 nm) was measured over time using a spectrophotometer PiCOSCOPE PAS-110 (manufactured by Ushio Inc.), and the degradation rate was calculated by the following equation (1). The degradation rate was shown by the mean±standard deviation of triplicate. Degradation rate=1−(OD615 after reaction/OD615 before reaction) (1). (6) Result […] Each reaction was performed without replicates."}},
  "data": [
    {"smiles": "O=C[C@@H](O)[C@H](O)[C@H](O)CO", "note": "[D-arabinose]", "values": [
      {"measurement": "difference between the promotion effects of the D-form and the L-form", "setting": "[1]; 37° C. or 50° C.", "result": "no difference"},
      {"measurement": "promotion of degradation, mutanolysin and lysozyme in combination", "setting": "[1]; 1.5 M, 37° C., FIG. 5A", "result": "promoted the degradation"},
      {"measurement": "degradation rate after 1 hour", "setting": "[1]; 1.5 M, 50° C., FIG. 7", "result": 93, "unit": "%"},
      {"measurement": "concentration dependence of the degradation rate", "setting": "[1]", "result": "concentration dependence was observed"},
      {"measurement": "degradation rate at 50° C. compared with 37° C.", "setting": "[1]; reaction for a short time, FIG. 7", "result": "higher"},
      {"measurement": "promotion of degradation, mutanolysin alone", "setting": "[2]; 1.5 M, FIG. 5A", "result": "promoted the degradation"},
      {"measurement": "promotion of degradation, lysozyme alone", "setting": "[3]", "result": "did not show significant promotion of degradation"},
      {"measurement": "solubility", "setting": "[4]", "result": "~1500", "unit": "mM"},
      {"measurement": "degradation rate after 1 hour of the reaction relative to the reaction in which no saccharide was added", "setting": "[5]", "result": "about 4 times"},
      {"measurement": "cell wall degradation-promoting effect", "setting": "[5]", "result": "showed the cell wall degradation-promoting effect"}
    ]},
    {"smiles": "O=C(CO)[C@@H](O)[C@H](O)[C@H](O)CO", "note": "[D-fructose]", "values": [
      {"measurement": "cell wall degradation-promoting effect after 1 hour of the reaction", "setting": "[5]", "result": "showed the cell wall degradation-promoting effect"}
    ]},
    {"smiles": "O=C[C@H](O)[C@@H](O)[C@H](O)[C@H](O)CO", "note": "[D-glucose, reference compound]", "values": [
      {"measurement": "cell wall degradation rate compared with the reaction in which no saccharide was added", "setting": "[5]", "result": "decrease in cell wall degradation rate"}
    ]},
    {"smiles": "O=C[C@@H](O)[C@@H](O)[C@H](O)CO", "note": "[D-lyxose]", "values": [
      {"measurement": "cell wall degradation-promoting effect", "setting": "[5]", "result": "showed the cell wall degradation-promoting effect"}
    ]},
    {"smiles": "O=C[C@H](O)[C@H](O)[C@H](O)CO", "note": "[D-ribose]", "values": [
      {"measurement": "cell wall degradation-promoting effect", "setting": "[5]", "result": "showed the cell wall degradation-promoting effect"}
    ]},
    {"smiles": "O=C[C@H](O)[C@@H](O)[C@H](O)CO", "note": "[D-xylose]", "values": [
      {"measurement": "cell wall degradation-promoting effect after 1 hour of the reaction", "setting": "[5]", "result": "showed the cell wall degradation-promoting effect"}
    ]},
    {"smiles": "O=C[C@H](O)[C@@H](O)[C@@H](O)CO", "note": "[L-arabinose]", "values": [
      {"measurement": "difference between the promotion effects of the D-form and the L-form", "setting": "[1]; 37° C. or 50° C.", "result": "no difference"},
      {"measurement": "concentration dependence of the degradation rate", "setting": "[1]", "result": "concentration dependence was observed"},
      {"measurement": "degradation-promoting effect, mutanolysin alone", "setting": "[2]", "result": "showed the degradation-promoting effect"},
      {"measurement": "solubility", "setting": "[4]", "result": "~1500", "unit": "mM"},
      {"measurement": "degradation rate after 1 hour of the reaction relative to the reaction in which no saccharide was added", "setting": "[5]", "result": "about 4 times"},
      {"measurement": "cell wall degradation-promoting effect", "setting": "[5]", "result": "showed the cell wall degradation-promoting effect"}
    ]},
    {"smiles": "C[C@H](O)[C@@H](O)[C@@H](O)[C@H](O)C=O", "note": "[L-fucose]", "values": [
      {"measurement": "degradation-promoting effect, mutanolysin alone", "setting": "[2]", "result": "showed the degradation-promoting effect"},
      {"measurement": "degradation rate after 1 hour of the reaction relative to the reaction in which no saccharide was added", "setting": "[5]", "result": "about 3 times"},
      {"measurement": "cell wall degradation-promoting effect", "setting": "[5]", "result": "showed the cell wall degradation-promoting effect"}
    ]},
    {"smiles": "O=C[C@H](O)[C@H](O)[C@@H](O)CO", "note": "[L-lyxose]", "values": [
      {"measurement": "cell wall degradation-promoting effect", "setting": "[5]", "result": "showed the cell wall degradation-promoting effect"}
    ]},
    {"smiles": "O=C[C@H](O)[C@H](O)[C@@H](O)[C@@H](O)CO", "note": "[L-mannose]", "values": [
      {"measurement": "degradation-promoting effect, mutanolysin alone", "setting": "[2]", "result": "showed the degradation-promoting effect"},
      {"measurement": "cell wall degradation-promoting effect", "setting": "[5]", "result": "showed the cell wall degradation-promoting effect"}
    ]},
    {"smiles": "C[C@H](O)[C@H](O)[C@@H](O)[C@@H](O)C=O", "note": "[L-rhamnose]", "values": [
      {"measurement": "degradation rate with increasing concentrations of L-rhamnose", "setting": "[1]; 0.5, 1.0, 1.5 M, 37° C. or 50° C., FIG. 2", "result": "increased with increasing concentrations"},
      {"measurement": "degradation rate after 24 hours of the reaction", "setting": "[1]; 1.5 M, 37° C.", "result": 0.97},
      {"measurement": "cell wall degradation rate compared with the reaction in which no saccharide was added", "setting": "[1]; 1.5 M, 37° C. or 50° C., mutanolysin (recombinant), FIG. 3B", "result": "increase in cell wall degradation rate"},
      {"measurement": "degradation rate after 5 hours of the reaction", "setting": "[1]; 1.5 M, 37° C., rate = 1-(OD615 after/OD615 before)", "result": 0.83},
      {"measurement": "degradation rate after 24 hours of the reaction", "setting": "[1]; 1.5 M, 50° C.", "result": 0.87},
      {"measurement": "degradation rate after 1 hour of the reaction", "setting": "[1]; 1.5 M, 50° C., rate = 1-(OD615 after/OD615 before)", "result": 0.69},
      {"measurement": "cell wall degradation rate compared with the reaction in which no saccharide was added", "setting": "[6]", "result": "increase in cell wall degradation rate"},
      {"measurement": "degradation-promoting effect, mutanolysin alone", "setting": "[2]", "result": "showed the degradation-promoting effect"},
      {"measurement": "cell wall degradation rate compared with the reaction in which no saccharide was added", "setting": "[5]", "result": "increase in cell wall degradation rate"}
    ]},
    {"smiles": "O=C[C@@H](O)[C@@H](O)[C@@H](O)CO", "note": "[L-ribose]", "values": [
      {"measurement": "cell wall degradation-promoting effect", "setting": "[5]", "result": "showed the cell wall degradation-promoting effect"}
    ]},
    {"smiles": "O=C[C@@H](O)[C@H](O)[C@@H](O)CO", "note": "[L-xylose]", "values": [
      {"measurement": "cell wall degradation-promoting effect", "setting": "[5]", "result": "showed the cell wall degradation-promoting effect"}
    ]}
  ]
}
